Assay results reported in ChEMBL document CHEMBL1156829 (Proc Natl Acad Sci U S A, 2008).
Several values for one entry are separate records, joined by “and”; a condition that tells them apart may be missing. Equal values may be shown once.

Columns and labels:
Plasmodium falciparum [1] = assay: NOVARTIS: Inhibition of Plasmodium falciparum 3D7 (drug-susceptible) proliferation in erythrocyte-based infection assay; type: functional, organism-based
Plasmodium falciparum [2] = assay: NOVARTIS: Inhibition of Plasmodium falciparum W2 (drug-resistant) proliferation in erythrocyte-based infection assay; type: functional, organism-based; details: read-out: EC50
[3] = NOVARTIS: Cytotoxicity against human hepatocellular carcinoma cell line (Huh7); type: toxicity, cell-based, Huh-7; details: Huh7 cells (hepatocellular carcinoma cell line)

SMILES	EC50 (Plasmodium falciparum [1]; Plasmodium falciparum, 3D7)	EC50 (Plasmodium falciparum [2]; Plasmodium falciparum, W2)	CC50 [3]	EC50 (Plasmodium falciparum [1])	EC50 (Plasmodium falciparum [2])
O=C(Cc1cccs1)N1CCOc2c(cc(-c3csc4ccccc34)cc2OCCc2ccccn2)C1	0.179 µM	0.106 µM	> 100 µM	–	–
COc1ccc(C2CC(=O)C3=C(C2)NC(C)=C(C(=O)OC2CCCC2)C3c2ccc(Cl)cc2)cc1 (stereo not drawn)	0.261 µM	0.125 µM	> 100 µM	–	–
COc1ccccc1-n1nnnc1SCC(=O)Nc1cc([N+](=O)[O-])ccc1C	0.651 µM	0.349 µM	> 100 µM	–	–
O=C1/C(=C/c2ccccc2)SC(=Nc2ccccc2)N1C1CCCCC1	1.2 µM	> 1.25 µM	–	–	–
COc1cnc(-c2ccccn2)nc1N1CCCC1	0.489 µM	0.648 µM	–	–	–
CC(C)CN1C(=O)c2ccccc2C(C(=O)Nc2ccccc2F)C1c1cccs1 (stereo not drawn)	–	–	> 100 µM	–	–
COc1cccc(NC(=O)C2C3C=CC4(O3)C2C(=O)N(CC2COc3ccccc3O2)C4C(=O)NC2CCCCC2)c1 (stereo not drawn)	> 1.25 µM	> 0.0537 µM	–	–	–
N#CCSc1nc2c(sc(=S)n2-c2ccccc2)c(=O)n1Cc1ccco1	> 1.35 µM	0.715 µM	–	–	–
Cc1ccc(C=Cc2ccc(N(C)C)cc2)[n+](C)c1	–	–	–	1.16 µM	0.914 µM
CC(C)CC[n+]1ccccc1C=Cc1ccc(N(C)C)cc1	–	–	–	0.747 µM	0.548 µM
CC1=NN(c2ccccc2)C(=O)C1=NNc1c(Br)cc(Br)cc1Br	> 1.25 µM	> 1.05 µM	–	–	–
CCOC(=O)c1c(-c2ccc3c(c2)OCO3)[nH]c2cc(OC)ccc2c1=O	0.127 µM	0.18 µM	–	–	–
Cc1cc2cc3c(cc2c(C)n1)c1ccccc1n3C	1.27 µM	1.1 µM	–	–	–
CN(C)c1ccc(C=C2SC(=Nc3ccccc3)NC2=O)cc1	0.0271 µM	–	> 74.4 µM	–	–
CCCCNc1nc(NC(C)(C)C)nc(NC(C)(C)C)n1	2.16 µM	0.804 µM	–	–	–
CCCOc1ccc(C(=O)C2=C(O)C(=O)N(CCN3CCOCC3)C2c2ccc(F)cc2)c(C)c1 (stereo not drawn)	> 1.25 µM	> 0.896 µM	–	–	–
CC1(C)Cc2nc3ccccc3c(NCc3ccc(Cl)cc3)c2C(O)C1 (stereo not drawn)	> 1.25 µM	2.11 µM	–	–	–
CCN1C=Cc2ccccc2/C1=C\c1ccc2ccccc2[n+]1CC	0.67 µM	0.294 µM	–	–	–
CCCCOc1ccc(/C=C(/C#N)c2nc(-c3ccc(-c4ccccc4)cc3)cs2)cc1	> 1.25 µM	> 0.774 µM	–	–	–
CN(C)c1ccc(/C=C2\SC(=N)N(c3nccs3)C2=O)cc1	0.223 µM	0.307 µM	–	–	–
CC(C)CN1C(=O)c2ccccc2C(C(=O)Nc2ccccn2)C1c1cccs1 (stereo not drawn)	–	–	> 100 µM	–	–

SMILES	EC50 (Plasmodium falciparum [1]; Plasmodium falciparum, 3D7)	EC50 (Plasmodium falciparum [2]; Plasmodium falciparum, W2)	CC50 [3]	EC50 (Plasmodium falciparum [1])	EC50 (Plasmodium falciparum [2])
CCN1/C(=C\c2sc3ccc(O)cc3[n+]2CC)C=Cc2ccccc21	0.582 µM	0.701 µM	–	–	–
COc1ccc(/C=C2\SC(=S)N(CC(=O)NNC(=O)c3ccncc3)C2=O)cc1	> 1.53 µM	2.28 µM	–	–	–
CC(=O)N1CCc2cc(Br)cc(S(=O)(=O)N(CC(C)C)CC(C)C)c21	1.22 µM	0.27 µM	–	–	–
COc1cc2c(cc1OC)C1=NNC(=O)C1=NC(C)(C)C2	> 1.58 µM	0.793 µM	–	–	–
COc1ccc(-c2csc(NC(=O)COc3ccccc3Cl)n2)cc1Br	1.64 µM	0.286 µM	–	–	–
O=C(CCCn1c2ccccc2c(=O)c2ccccc21)NCc1ccc(F)cc1	1.11 µM	1.09 µM	–	–	–
O=C(Cn1ccc(=NCc2ccccc2)cc1)c1cccc(Br)c1	> 1.39 µM	> 0.11 µM	–	–	–
COc1ccc(-c2cc(C(F)(F)F)n3ncc(C(=O)NCc4ccccc4)c3n2)cc1	> 1.25 µM	1.54 µM	–	–	–
CCOC(=O)c1c(-c2ccc3c(c2)OCO3)[nH]c2cccc(OC)c2c1=O	–	–	> 10 µM	–	–
Cc1ccnc(Nc2nc(-c3ccccn3)cs2)c1	0.113 µM	0.0463 µM	–	–	–
CCC(C)NC(=O)c1nn(-c2ccc(Cl)cc2)c(=O)c2ccccc12 (stereo not drawn)	0.285 µM	0.696 µM	–	–	–
CC(C)CN1C(=O)c2ccccc2C(C(=O)NC2CCCCC2)C1c1cccs1 (stereo not drawn)	–	–	> 100 µM	–	–
Cc1cc(Nc2ccc(C)c(F)c2)n2nc(C)nc2n1	1.04 µM	–	> 100 µM	–	–
CCN1/C(=C/c2sc3ccc(-c4ccccc4)cc3[n+]2CCO)C=Cc2cc(OC)ccc21	0.487 µM	0.945 µM	–	–	–
O=C1C(N2CCCCC2)=C(N2CCOCC2)C(=O)c2ccccc21	1.24 µM	> 1.46 µM	–	–	–
CC(C)CN1C(=O)c2ccccc2C(C(=O)Nc2cccc(Cl)c2)C1c1cccs1 (stereo not drawn)	–	–	93.5 µM	–	–
CCc1nc(N)nc(N)c1-c1ccccc1	1.55 µM	> 1.25 µM	–	–	–
O=C1CCC(=O)N1c1ccc(CSc2nc3ccccc3[nH]2)cc1	> 0.281 µM	> 1.25 µM	–	–	–
O=C(NC(=S)Nc1ccc(-c2nc3ccccc3s2)cc1)c1ccc(S(=O)(=O)N2CCCC2)cc1	2.05 µM	> 1.59 µM	–	–	–
CCC(=O)Nc1ccc(C(=O)NN=Cc2cc([N+](=O)[O-])ccc2O)cc1	> 1.25 µM	1.54 µM	–	–	–
CN[C@@H]1CC2O[C@@](C)([C@@H]1OC)n1c3ccccc3c3c4c(c5c6ccccc6n2c5c31)C(=O)NC4	–	–	0.355 µM	–	–

SMILES	EC50 (Plasmodium falciparum [1]; Plasmodium falciparum, 3D7)	EC50 (Plasmodium falciparum [2]; Plasmodium falciparum, W2)	CC50 [3]	EC50 (Plasmodium falciparum [1])	EC50 (Plasmodium falciparum [2])
COC(=O)c1ccc(C2C3=C(O)CC(c4ccco4)CC3=Nc3ccccc3N2C(=O)c2ccccc2)cc1 (stereo not drawn)	0.387 µM	–	> 100 µM	0.579 µM	–
O=[N+]([O-])c1ccc(C2OC3C(c4ccc(Cl)cc4)=Nc4ccccc4N3C2c2ccc([N+](=O)[O-])cc2)cc1 (stereo not drawn)	> 1.25 µM	0.709 µM	–	–	–
CCN(CC)c1ccc(/C=C/c2ccc3ccc(OC)cc3[n+]2CC)cc1	–	–	–	0.0384 µM and 0.248 µM	–
CN1/C(=C/C=C/c2oc3ccccc3[n+]2C)Oc2ccccc21	0.161 µM	–	–	0.182 µM	–
Oc1ccccc1CNC(Cc1ccccc1)C(O)(c1ccccc1)c1ccccc1 (stereo not drawn)	0.203 µM	0.0276 µM	–	–	–
CC(C)CN1C(=O)c2ccccc2C(C(=O)Nc2cccc(C(F)(F)F)c2)C1c1cccs1 (stereo not drawn)	–	–	> 100 µM	–	–
Cc1ccc(N=C(Nc2ccc(C)cc2)Nc2ccccc2O)cc1	1.53 µM	0.231 µM	–	–	–
CCCCN(CCCC)c1nc(=O)cc(-c2ccc(Cl)cc2)o1	0.81 µM	0.636 µM	–	–	–
CCCOC(=O)c1c(NC(=O)c2c(I)cnn2C)sc2c1CCCCC2	1.24 µM	> 1.25 µM	–	–	–
CCOC(=O)C1=C(C)NC(=Cc2cc(C)n(-c3ccccc3C(F)(F)F)c2C)C1=O	0.0138 µM	0.0117 µM	–	–	–
CCOC(=O)CC(C)(O)P(=O)(OC)OC (stereo not drawn)	> 1.01 µM	> 1.25 µM	–	–	–
CCOC(=O)c1c[nH]c2c(ccc3ccccc32)c1=O	–	–	> 100 µM	–	–
CC12C(=O)N(c3cccc(C(=O)O)c3)C(=O)C1C1c3ccccc3C2c2ccccc21 (stereo not drawn)	> 0.652 µM	> 1.25 µM	–	–	–
Cc1ccc(NC(=O)C2C3C=CC4(O3)C2C(=O)N(CCCN2CCOCC2)C4C(=O)NC2CCCC(C)C2C)cc1Cl (stereo not drawn)	> 1.63 µM	> 0.117 µM	–	–	–
Cc1c(Br)c([N+](=O)[O-])nn1CC(=O)NC(C)c1ccccc1 (stereo not drawn)	> 1.25 µM	> 0.948 µM	–	–	–
CN(C)c1ccc(/C=C2/SC(=Nc3ccccc3Cl)NC2=O)cc1	> 1.25 µM	–	–	0.713 µM	> 0.512 µM and 1.41 µM
O=C(/C=C/c1ccccc1)Nc1ccc(C(=O)OC[C@@H]2CCCN3CCCC[C@H]23)cc1	1.44 µM	> 1.25 µM	–	–	–
CCOC(=O)C1=C(C)N/C(=C/c2cc(C)n(-c3ccccc3C(F)(F)F)c2C)C1=O	0.471 µM	0.628 µM	–	–	–
CN1/C(=C\C=C\C2=[N+](C)c3ccc4ccccc4c3C2(C)C)C(C)(C)c2ccccc21	1.64 µM	1.02 µM	–	–	–
Cc1cc(/C=C2\SC(=Nc3ccccc3)N(C3CCCCC3)C2=O)c(C)n1-c1ccc(F)cc1	–	0.383 µM	> 100 µM	–	0.68 µM
COc1cc(C=NNc2nc3ccccc3[nH]2)cc(Br)c1O	1.42 µM	> 1.25 µM	–	–	–

SMILES	EC50 (Plasmodium falciparum [1]; Plasmodium falciparum, 3D7)	EC50 (Plasmodium falciparum [2]; Plasmodium falciparum, W2)	CC50 [3]	EC50 (Plasmodium falciparum [1])	EC50 (Plasmodium falciparum [2])
C=CC1CN2CCC1CC2[C@@H](OC(=O)c1cc([N+](=O)[O-])cc([N+](=O)[O-])c1)c1ccnc2ccc(OC)cc12 (stereo partly drawn)	1.3 µM	1.61 µM	–	–	–
CNc1nc(NN=Cc2cc([N+](=O)[O-])ccc2O)nc(Nc2cccc(C(F)(F)F)c2)n1	1.86 µM	> 1.66 µM	–	–	–
COc1ccc(C2C(C(=O)c3ccc(C)cc3)=C(O)C(=O)N2CCN2CCOCC2)c(OC)c1 (stereo not drawn)	> 0.05 µM	> 1.25 µM	–	–	–
CN(C=Cc1sc2ccc3ccccc3c2[n+]1C)c1ccccc1	–	–	–	0.553 µM	0.909 µM
CCCCOc1cccc(NC(=O)CSC2=C(C#N)C(c3ccccc3)C(C(=O)Nc3ccccc3)=C(C)N2)c1 (stereo not drawn)	0.507 µM	0.479 µM	–	–	–
Cc1ccc(Nc2nc(-c3ccccn3)cs2)cc1	0.407 µM	0.368 µM	–	–	–
C=CC12CCN(CC1)C(C(O)c1ccnc3ccc(OC)cc13)C2 (stereo not drawn)	–	0.0293 µM	77.7 µM	–	–
O=C(Nc1cccc(-c2csc(-c3ccccc3)n2)c1)c1cccs1	1.25 µM	0.672 µM	–	–	–
CC[n+]1cc(C)ccc1C=Cc1ccc(N(C)C)cc1	–	0.386 µM	–	0.521 µM	–
COc1ccc(-c2nc(-c3ccc(-c4[nH]c(-c5ccc(OC)cc5)nc4-c4ccccc4)cc3)c(-c3ccccc3)[nH]2)cc1	1.29 µM	> 1.25 µM	–	–	–
Cc1cccc(NC(c2cccc(F)c2)c2ccc3cccnc3c2O)n1 (stereo not drawn)	1.71 µM	0.88 µM	–	–	–
Oc1ccc(C(CCNCCc2c[nH]c3ccccc23)c2ccccc2)cc1 (stereo not drawn)	> 0.997 µM	0.474 µM	–	–	–
CC[n+]1ccc(C=Cc2ccc(N(C)C)cc2)cc1	0.681 µM	–	–	–	0.724 µM
CCOC(=O)C1=C(C)N=c2sc(=Cc3cc(Cl)ccc3O)c(=O)n2C1c1ccc(OC)c(OC)c1 (stereo not drawn)	–	–	> 100 µM	–	1.45 µM and 0.264 µM
C=C[C@H]1C[N@]2CC[C@H]1C[C@H]2[C@H](O)c1ccnc2ccc(OC)cc12	0.518 µM	0.793 µM	–	–	–
CN(C)c1ccc(/C=C2\N=C(c3ccccc3F)OC2=O)cc1	> 1.25 µM	> 1.21 µM	–	–	–
N#Cc1c2c(c(N3CCN(C(c4ccccc4)c4ccccc4)CC3)n3c1nc1ccccc13)CCC2	> 1.25 µM	2.27 µM	–	–	–
COc1ccc2ccccc2c1C1NC(SCc2ccc(F)cc2)=NC(C)=C1C(C)=O (stereo not drawn)	> 1.61 µM	0.702 µM	–	–	–
Cc1ccc(NC(=O)c2cc3ccccc3oc2=O)nc1	> 1.08 µM	> 1.25 µM	–	–	–
COc1ccc(OC)c(C=NNC(=O)Cc2cc(O)n[nH]2)c1	> 1.25 µM	1.94 µM	–	–	–
